Measurements reported in ChEMBL document CHEMBL1909046, “DrugMatrix in vitro pharmacology data”.

Assays:
[1] = DRUGMATRIX: Atrial Natriuretic Factor (ANF) radioligand binding (ligand: [125I] ANF (rat)); type: cell membranes, Cavia porcellus, Dunkin-Hartley, Adrenal gland, Membrane; details: Not Active = under 50% inhibition at 10 µM
Glucocorticoid receptor = target: T1, Glucocorticoid receptor (Homo sapiens, UniProt P04150); details: hela s3; also: in other assays of this panel Not Active means under 50% inhibition at 10 µM
T1 sequence (P04150 whole entry): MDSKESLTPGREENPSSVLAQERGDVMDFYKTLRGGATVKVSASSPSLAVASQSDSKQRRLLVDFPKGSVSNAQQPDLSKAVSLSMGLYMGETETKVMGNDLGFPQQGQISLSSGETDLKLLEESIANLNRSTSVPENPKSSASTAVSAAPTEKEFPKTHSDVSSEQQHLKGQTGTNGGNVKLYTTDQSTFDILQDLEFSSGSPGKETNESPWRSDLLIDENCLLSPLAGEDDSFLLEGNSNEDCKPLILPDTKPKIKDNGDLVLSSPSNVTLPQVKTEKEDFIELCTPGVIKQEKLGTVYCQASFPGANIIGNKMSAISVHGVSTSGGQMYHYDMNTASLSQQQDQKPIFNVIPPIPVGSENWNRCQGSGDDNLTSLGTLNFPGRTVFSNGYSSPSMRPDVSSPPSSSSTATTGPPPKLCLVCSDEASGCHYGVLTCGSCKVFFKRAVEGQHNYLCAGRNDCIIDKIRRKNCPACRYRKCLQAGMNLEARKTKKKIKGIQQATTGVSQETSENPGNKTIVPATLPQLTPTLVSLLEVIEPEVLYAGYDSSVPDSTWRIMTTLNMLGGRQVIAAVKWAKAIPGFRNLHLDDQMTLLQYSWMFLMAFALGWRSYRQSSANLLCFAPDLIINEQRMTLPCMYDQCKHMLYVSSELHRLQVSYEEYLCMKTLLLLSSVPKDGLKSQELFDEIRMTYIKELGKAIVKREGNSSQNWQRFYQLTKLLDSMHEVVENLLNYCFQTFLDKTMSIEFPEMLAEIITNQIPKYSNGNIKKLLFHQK

[2] = target: T2, Type-2 angiotensin II receptor (Homo sapiens, UniProt P50052); type: cell-based; details: cho-k1; also: in other assays of this panel Not Active means under 50% inhibition at 10 µM
T2 sequence (P50052 whole entry): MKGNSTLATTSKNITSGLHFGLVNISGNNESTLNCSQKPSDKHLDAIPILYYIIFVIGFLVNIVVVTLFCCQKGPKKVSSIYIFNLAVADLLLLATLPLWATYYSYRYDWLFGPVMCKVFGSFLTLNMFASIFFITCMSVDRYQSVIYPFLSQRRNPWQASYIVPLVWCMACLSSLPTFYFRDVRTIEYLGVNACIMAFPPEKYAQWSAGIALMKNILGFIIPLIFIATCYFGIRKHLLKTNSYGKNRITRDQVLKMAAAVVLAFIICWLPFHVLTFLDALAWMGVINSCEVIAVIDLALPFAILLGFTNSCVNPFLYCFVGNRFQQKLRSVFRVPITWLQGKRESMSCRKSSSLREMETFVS

[3] = target: T3, C-X-C chemokine receptor type 2 (Homo sapiens, UniProt P25025); type: cell membranes, Membrane; details: cho-k1; also: in other assays of this panel Not Active means under 50% inhibition at 10 µM
T3 sequence (P25025 whole entry): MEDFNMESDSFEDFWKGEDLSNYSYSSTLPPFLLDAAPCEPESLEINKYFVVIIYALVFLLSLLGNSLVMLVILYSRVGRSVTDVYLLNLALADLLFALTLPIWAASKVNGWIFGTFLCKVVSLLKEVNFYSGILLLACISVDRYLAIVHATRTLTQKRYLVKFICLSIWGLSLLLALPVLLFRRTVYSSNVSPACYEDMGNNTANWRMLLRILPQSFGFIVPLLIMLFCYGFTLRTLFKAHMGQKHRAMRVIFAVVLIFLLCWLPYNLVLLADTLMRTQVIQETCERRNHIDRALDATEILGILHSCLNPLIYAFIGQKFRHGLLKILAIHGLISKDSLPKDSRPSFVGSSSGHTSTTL

Substance-P receptor = Substance-P receptor (Homo sapiens, UniProt P25103); type: cell membranes, Membrane; details: cho; also: in other assays of this panel Not Active means under 50% inhibition at 10 µM
Chain of Substance-P receptor (P25103 whole entry): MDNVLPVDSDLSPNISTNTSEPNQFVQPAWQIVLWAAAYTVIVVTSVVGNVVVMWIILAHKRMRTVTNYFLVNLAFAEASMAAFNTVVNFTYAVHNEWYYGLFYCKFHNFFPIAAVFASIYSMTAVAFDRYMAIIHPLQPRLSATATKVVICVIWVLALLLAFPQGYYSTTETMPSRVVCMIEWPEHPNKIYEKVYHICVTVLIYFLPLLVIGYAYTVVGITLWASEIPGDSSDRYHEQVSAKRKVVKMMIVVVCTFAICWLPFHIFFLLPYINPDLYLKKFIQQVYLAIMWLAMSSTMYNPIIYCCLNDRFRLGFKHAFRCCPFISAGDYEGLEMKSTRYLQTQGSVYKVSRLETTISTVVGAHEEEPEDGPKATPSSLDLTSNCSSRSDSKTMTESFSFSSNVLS

[4] = DRUGMATRIX: Nicotinic Acetylcholine radioligand binding (ligand: [125I] Epibatidine); type: cell membranes, Membrane; details: imr-32; Not Active = under 50% inhibition at 10 µM
[5] = target: T4, Amine oxidase [flavin-containing] A (Homo sapiens, UniProt P21397); experiment: DRUGMATRIX: Monoamine Oxidase MAO-A enzyme inhibition (substrate: Kynuramine); design: species or system BTI-TN-5B1-4; details: bti-tn-5b1-4; Not Active = under 50% inhibition at 10 µM
T4 sequence (P21397 whole entry): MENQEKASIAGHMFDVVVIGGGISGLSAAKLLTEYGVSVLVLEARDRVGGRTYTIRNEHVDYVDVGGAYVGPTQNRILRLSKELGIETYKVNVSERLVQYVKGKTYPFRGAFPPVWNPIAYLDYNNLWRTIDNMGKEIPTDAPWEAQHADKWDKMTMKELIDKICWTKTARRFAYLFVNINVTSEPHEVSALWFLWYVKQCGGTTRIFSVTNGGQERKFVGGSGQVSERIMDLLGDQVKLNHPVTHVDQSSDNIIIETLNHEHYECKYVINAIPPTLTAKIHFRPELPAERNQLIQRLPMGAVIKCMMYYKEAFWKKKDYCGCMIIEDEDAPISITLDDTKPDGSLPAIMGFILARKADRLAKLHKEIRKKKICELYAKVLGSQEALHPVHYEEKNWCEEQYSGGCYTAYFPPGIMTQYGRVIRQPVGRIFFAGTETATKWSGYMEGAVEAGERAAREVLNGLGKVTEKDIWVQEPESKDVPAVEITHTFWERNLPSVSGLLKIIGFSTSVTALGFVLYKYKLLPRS

[6] = DRUGMATRIX: Phorbol Ester radioligand binding (ligand: [3H] PDBu); type: cell membranes, Mus musculus, ICR, Brain, Membrane; details: Not Active = under 50% inhibition at 10 µM
Calcitonin receptor = target: T5, Calcitonin receptor (Homo sapiens, UniProt P30988); type: cell membranes, Membrane; details: t47d; also: in other assays of this panel Not Active means under 50% inhibition at 10 µM
T5 sequence (P30988 whole entry): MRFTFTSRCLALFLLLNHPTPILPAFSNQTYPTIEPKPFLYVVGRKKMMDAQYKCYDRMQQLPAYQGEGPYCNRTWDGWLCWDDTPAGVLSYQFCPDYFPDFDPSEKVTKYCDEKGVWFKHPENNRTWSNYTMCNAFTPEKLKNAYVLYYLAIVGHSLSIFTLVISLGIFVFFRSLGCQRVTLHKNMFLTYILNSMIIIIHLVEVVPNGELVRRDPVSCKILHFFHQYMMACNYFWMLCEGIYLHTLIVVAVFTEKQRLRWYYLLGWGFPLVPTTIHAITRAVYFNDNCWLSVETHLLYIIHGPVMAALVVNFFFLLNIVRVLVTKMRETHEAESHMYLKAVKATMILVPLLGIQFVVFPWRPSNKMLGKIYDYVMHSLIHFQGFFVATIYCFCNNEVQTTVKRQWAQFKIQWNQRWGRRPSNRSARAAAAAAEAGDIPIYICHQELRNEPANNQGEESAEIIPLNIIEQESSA

CN1C(=O)CN=C(c2ccccc2)c2cc(Cl)ccc21 [DIAZEPAM]
Not Active: IC50 [1] | Ki [1] | IC50 (Glucocorticoid receptor) | IC50 [2] | IC50 [3] | IC50 (Substance-P receptor) | IC50 [4] | Ki [4] | IC50 [5] | IC50 [6] | Ki [6] | IC50 (Calcitonin receptor)

NC[C@H]1O[C@H](O[C@H]2[C@H](O)[C@@H](O[C@H]3O[C@H](CO)[C@@H](O)[C@H](N)[C@H]3O)[C@H](N)C[C@@H]2N)[C@H](O)[C@@H](O)[C@@H]1O [KANAMYCIN]
Not Active: IC50 [1] | Ki [1] | IC50 (Glucocorticoid receptor) | IC50 [2] | IC50 [3] | IC50 (Substance-P receptor) | IC50 [4] | Ki [4] | IC50 [5] | IC50 [6] | Ki [6] | IC50 (Calcitonin receptor)

COc1cc(CNC(=O)CCCC/C=C/C(C)C)ccc1O [CAPSAICIN]
Not Active: IC50 [1] | Ki [1] | IC50 (Glucocorticoid receptor) | IC50 [2] | IC50 [3] | IC50 (Substance-P receptor) | IC50 [4] | Ki [4] | IC50 [5] | IC50 [6] | Ki [6] | IC50 (Calcitonin receptor)

C[C@]12C/C(=C/O)C(=O)C[C@@H]1CC[C@@H]1[C@@H]2CC[C@@]2(C)[C@H]1CC[C@]2(C)O [OXYMETHOLONE]
Not Active: IC50 [1] | Ki [1] | IC50 (Glucocorticoid receptor) | IC50 [2] | IC50 [3] | IC50 (Substance-P receptor) | IC50 [4] | Ki [4] | IC50 [5] | IC50 [6] | Ki [6] | IC50 (Calcitonin receptor)

C[C@@H]1CC[C@H]2[C@@H](C)C(=O)O[C@@H]3O[C@@]4(C)CC[C@@H]1[C@]32OO4 [ARTEMISININ]
Not Active: IC50 [1] | Ki [1] | IC50 (Glucocorticoid receptor) | IC50 [2] | IC50 [3] | IC50 (Substance-P receptor) | IC50 [4] | Ki [4] | IC50 [5] | IC50 [6] | Ki [6] | IC50 (Calcitonin receptor)

CCOC(=O)[C@H](CCc1ccccc1)N[C@@H](C)C(=O)N1Cc2ccccc2C[C@H]1C(=O)O
Not Active: IC50 [1] | Ki [1] | IC50 (Glucocorticoid receptor) | IC50 [2] | IC50 [3] | IC50 (Substance-P receptor) | IC50 [4] | Ki [4] | IC50 [5] | IC50 [6] | Ki [6] | IC50 (Calcitonin receptor)

C=C1/C(=C\C=C2/CCC[C@]3(C)[C@@H]([C@H](C)CCCC(C)C)CC[C@@H]23)C[C@@H](O)C[C@@H]1O [ALFACALCIDOL]
Not Active: IC50 [1] | Ki [1] | IC50 (Glucocorticoid receptor) | IC50 [2] | IC50 [3] | IC50 (Substance-P receptor) | IC50 [4] | Ki [4] | IC50 [5] | IC50 [6] | Ki [6] | IC50 (Calcitonin receptor)

CCCCC1C(=O)N(c2ccccc2)N(c2ccccc2)C1=O [PHENYLBUTAZONE]
Not Active: IC50 [1] | Ki [1] | IC50 (Glucocorticoid receptor) | IC50 [2] | IC50 [3] | IC50 (Substance-P receptor) | IC50 [4] | Ki [4] | IC50 [5] | IC50 [6] | Ki [6] | IC50 (Calcitonin receptor)

Cc1cn[nH]c1 [FOMEPIZOLE]
Not Active: IC50 [1] | Ki [1] | IC50 (Glucocorticoid receptor) | IC50 [2] | IC50 [3] | IC50 (Substance-P receptor) | IC50 [4] | Ki [4] | IC50 [5] | IC50 [6] | Ki [6] | IC50 (Calcitonin receptor)

N[C@@H](Cc1ccc(F)cc1)C(=O)O
Not Active: IC50 [1] | Ki [1] | IC50 (Glucocorticoid receptor) | IC50 [2] | IC50 [3] | IC50 (Substance-P receptor) | IC50 [4] | Ki [4] | IC50 [5] | IC50 [6] | Ki [6] | IC50 (Calcitonin receptor)

O=C(/C=C/c1ccc(O)c(O)c1)OCCc1ccccc1 [CAFFEIC ACID PHENETHYL ESTER]
Not Active: IC50 [1] | Ki [1] | IC50 (Glucocorticoid receptor) | IC50 [2] | IC50 [3] | IC50 (Substance-P receptor) | IC50 [4] | Ki [4] | IC50 [5] | IC50 [6] | Ki [6] | IC50 (Calcitonin receptor)

CCOC(=O)C1=C(C)NC(C)=C(C(=O)OC)C1c1cccc(Cl)c1Cl (stereo not drawn) [FELODIPINE]
Not Active: IC50 [1] | Ki [1] | IC50 (Glucocorticoid receptor) | IC50 [2] | IC50 [3] | IC50 (Substance-P receptor) | IC50 [4] | Ki [4] | IC50 [5] | IC50 [6] | Ki [6] | IC50 (Calcitonin receptor)

C[C@H]([C@](O)(Cn1cncn1)c1ccc(F)cc1F)S(C)(=O)=O [GENACONAZOLE]
Not Active: IC50 [1] | Ki [1] | IC50 (Glucocorticoid receptor) | IC50 [2] | IC50 [3] | IC50 (Substance-P receptor) | IC50 [4] | Ki [4] | IC50 [5] | IC50 [6] | Ki [6] | IC50 (Calcitonin receptor)

Nc1nc(N)nc(NC2CC2)n1 [CYROMAZINE]
Not Active: IC50 [1] | Ki [1] | IC50 (Glucocorticoid receptor) | IC50 [2] | IC50 [3] | IC50 (Substance-P receptor) | IC50 [4] | Ki [4] | IC50 [5] | IC50 [6] | Ki [6] | IC50 (Calcitonin receptor)
